Where two headings read alike, the source gives them in different places.
Tests used:
C. xerosis ATCC 373 = experiment: BCT test (bacterial contact time), 120 s, log reduction / effect fraction; CI by Compusyn; assay type: cell-based; conditions: Corynebacterium xerosis, ATCC373, 2 min, contact 120 s, 25% EtOH; for log reduction at 0.2 % strength: dose 0.2% w/v; for log reduction at 0.25 % strength: dose 0.25% w/v; for log reduction at 0.3 % strength: dose 0.3% w/v; for log reduction at 0.1 % strength: dose 0.1% w/v
How it was run: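 C. xerosis cells grown in BHI-TW80 at 37 °C to OD600 1.6 were exposed to ethanolic perfume compositions for 120 s. Viable counts (log CFU) came from serial dilution and OD600 growth after 37 °C incubation, giving log reduction versus ethanol control. CI was computed from concentrations and effect fractions, with <0.9 taken as synergy.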

E. coli ATCC 10536 = experiment: BCT test (bacterial contact time), 45 s, log reduction / effect fraction; CI by Compusyn; assay type: cell-based, Escherichia coli; conditions: for log reduction at 0.1 % strength: read-out: Log reduction
How it was run: (§1)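 Log-phase cultures (OD600 1-2) were resuspended in TSB at about 1×10^8 bacteria/mL and mixed 1:1 with ethanolic perfume combinations or single ingredients, five replicates each. After the stated contact time, serial dilutions were grown at 37° C and viable counts derived from OD600 turbidity; log reduction is versus ethanol control.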

S. aureus ATCC 6538 = experiment: BCT test (bacterial contact time), 60 s, log reduction / effect fraction; CI by Compusyn; assay type: cell-based, Staphylococcus aureus; conditions: Staphylococcus aureus, ATCC6538, 1 min, in 25% EtOH; for log reduction at 0.05 % strength: dose 0.050 % w/v; for log reduction at 0.075 % strength: dose 0.075 % w/v
How it was run: as §1

[1] = test system: Pseudomonas aeruginosa ATCC 15442; experiment: as above; assay type: cell-based; conditions: Pseudomonas aeruginosa, ATCC15442, 1 min, BCT 60 s, in 25% EtOH; for log reduction at 0.05 % strength: Dose 0.05 % w/v; for log reduction at 0.1 % strength: Dose 0.1 % w/v
How it was run: as §1

[2] = test system: Salmonella enterica ATCC 10708; experiment: as above; assay type: cell-based; conditions: Salmonella enterica, ATCC10708, 1 min, BCT 60 s, in 25% EtOH; for log reduction at 0.04 % strength: Dose 0.04 % w/v; for log reduction at 0.05 % strength: Dose 0.05 % w/v; for log reduction at 0.05 % strength / log reduction at 0.1 % strength: read-out: Log reduction
How it was run: as §1

[3] = dose 0.150 % w/v, 60 s, read-out: Log reduction

CCC(C)(O)CCCC(C)C (stereo not drawn) [Tetralinol, 3,7-Dimethyl-3-octanol]
log reduction at 0.05 % strength (C. xerosis ATCC 373; dose 0.05% w/v): 0.1 | log reduction at 0.2 % strength (C. xerosis ATCC 373; read-out: Log reduction): 5.7 | log reduction at 0.25 % strength (C. xerosis ATCC 373; read-out: Log reduction): 6.4 | log reduction at 0.3 % strength (C. xerosis ATCC 373; read-out: Log reduction): 6.5 | log reduction at 0.02 % strength (E. coli ATCC 10536; Escherichia coli, ATCC10536, 45 s, dose 0.02 % w/v, 45 s, in 20% EtOH): 0.1 | log reduction at 0.025 % strength (E. coli ATCC 10536; Escherichia coli, ATCC10536, 45 s, dose 0.025 % w/v, 45 s, in 20% EtOH): 0.6 | log reduction at 0.025 % strength (E. coli ATCC 10536; Escherichia coli, ATCC10536, 45 s, dose 0.025% w/v, contact 45 s, 20% EtOH): 0.7 | log reduction at 0.03 % strength (E. coli ATCC 10536; Escherichia coli, ATCC10536, 45 s, dose 0.030 % w/v, 45 s, in 20% EtOH): 1.4 | log reduction at 0.03 % strength (E. coli ATCC 10536; Escherichia coli, ATCC10536, 45 s, dose 0.03% w/v, contact 45 s, 20% EtOH): 2 | log reduction at 0.035 % strength (E. coli ATCC 10536; Escherichia coli, ATCC10536, 45 s, dose 0.035 % w/v, 45 s, in 20% EtOH): 5 | log reduction at 0.035 % strength (E. coli ATCC 10536; Escherichia coli, ATCC10536, 45 s, dose 0.035% w/v, contact 45 s, 20% EtOH): 5.9 | log reduction at 0.04 % strength (E. coli ATCC 10536; Escherichia coli, ATCC10536, 45 s, dose 0.04% w/v, contact 45 s, 20% EtOH): 7 | Log reduction (E. coli ATCC 10536; dose 0.025 % w/v, 45 s, in 20% EtOH): 0.6 | log reduction at 0.0375 % strength (S. aureus ATCC 6538; dose 0.0375 % w/v, 60 s): 1.3 | log reduction at 0.05 % strength (S. aureus ATCC 6538; 60 s): 5.5 | log reduction at 0.075 % strength (S. aureus ATCC 6538; 60 s): 7.3 | log reduction at 0.1 % strength (S. aureus ATCC 6538; dose 0.100 % w/v, 60 s): 7.5 | log reduction at 0.025 % strength ([1]; Dose 0.025 % w/v): 1.2 | log reduction at 0.05 % strength [1]: 3.2 | log reduction at 0.075 % strength ([1]; Dose 0.075 % w/v): 3.9 | log reduction at 0.1 % strength [1]: 7.1 | log reduction at 0.125 % strength ([1]; Dose 0.125 % w/v): 7.1 | log reduction at 0.04 % strength [2]: 5.3 | log reduction at 0.05 % strength [2]: 6.2

C=C(C)[C@@H]1CC=C(CO)CC1 [Perycorolle, (S)-(−)-(4-Isopropenyl-1-cyclohexenyl)methanol]
log reduction at 0.1 % strength (C. xerosis ATCC 373): 0.2 | log reduction at 0.15 % strength (C. xerosis ATCC 373; dose 0.15% w/v): 3.4 | log reduction at 0.2 % strength (C. xerosis ATCC 373; read-out: Log reduction): 4.8 | log reduction at 0.25 % strength (C. xerosis ATCC 373; read-out: Log reduction): 6.5 | log reduction at 0.3 % strength (C. xerosis ATCC 373; read-out: Log reduction): 6.4 | log reduction at 0.05 % strength (E. coli ATCC 10536; Escherichia coli, ATCC10536, 45 s, dose 0.05% w/v, contact 45 s, 20% EtOH): 0 | log reduction at 0.07 % strength (E. coli ATCC 10536; Escherichia coli, ATCC10536, 45 s, dose 0.07% w/v, contact 45 s, 20% EtOH): 1.2 | log reduction at 0.08 % strength (E. coli ATCC 10536; Escherichia coli, ATCC10536, 45 s, dose 0.08% w/v, contact 45 s, 20% EtOH): 3.7 | log reduction at 0.09 % strength (E. coli ATCC 10536; Escherichia coli, ATCC10536, 45 s, dose 0.09% w/v, contact 45 s, 20% EtOH): 6 | log reduction at 0.1 % strength (E. coli ATCC 10536; Escherichia coli, ATCC10536, 45 s, dose 0.1% w/v, contact 45 s, 20% EtOH): 7.4 | log reduction at 0.05 % strength (S. aureus ATCC 6538; 60 s): 0.2 | log reduction at 0.075 % strength (S. aureus ATCC 6538; 60 s): 1.6 | log reduction at 0.1 % strength (S. aureus ATCC 6538; dose 0.100 % w/v, 60 s): 5.1 | log reduction at 0.125 % strength (S. aureus ATCC 6538; dose 0.125 % w/v, 60 s): 7.3 | log reduction at 0.15 % strength (S. aureus ATCC 6538; [3]): 7.3 | log reduction at 0.05 % strength [1]: 1.8 | log reduction at 0.06 % strength ([1]; Dose 0.06 % w/v): 3.7 | log reduction at 0.07 % strength ([1]; Dose 0.07 % w/v): 5.1 | log reduction at 0.08 % strength ([1]; Dose 0.08 % w/v): 7.1 | log reduction at 0.1 % strength [1]: 7.5 | log reduction at 0.04 % strength [2]: 0 | log reduction at 0.05 % strength [2]: 0.3 | log reduction at 0.06 % strength ([2]; Dose 0.06 % w/v): 0.9 | log reduction at 0.07 % strength ([2]; Dose 0.07 % w/v): 2.2 | log reduction at 0.08 % strength ([2]; Dose 0.080 % w/v): 5.2

C=CCc1ccc(O)c(OC)c1 [Eugenol F, 2-Methoxy-4-(prop-2-en-1-yl)phenol]
log reduction at 0.1 % strength (C. xerosis ATCC 373): 0.1 | log reduction at 0.2 % strength (C. xerosis ATCC 373; read-out: Log reduction): 0.4 | log reduction at 0.25 % strength (C. xerosis ATCC 373; read-out: Log reduction): 1.8 | log reduction at 0.3 % strength (C. xerosis ATCC 373; read-out: Log reduction): 2.7 | log reduction at 0.4 % strength (C. xerosis ATCC 373; dose 0.4% w/v, read-out: Log reduction): 5.1 | log reduction at 0.5 % strength (C. xerosis ATCC 373; dose 0.5% w/v): 6.3 | log reduction at 0.075 % strength (E. coli ATCC 10536; Escherichia coli, ATCC10536, 45 s, dose 0.075 % w/v, 45 s, in 20% EtOH): 0 | log reduction at 0.09 % strength (E. coli ATCC 10536; Escherichia coli, ATCC10536, 45 s, dose 0.090 % w/v, 45 s, in 20% EtOH): 0.3 | log reduction at 0.1 % strength (E. coli ATCC 10536; Escherichia coli, ATCC10536, 45 s, dose 0.100 % w/v, 45 s, in 20% EtOH): 0.9 | log reduction at 0.125 % strength (E. coli ATCC 10536; Escherichia coli, ATCC10536, 45 s, dose 0.125 % w/v, 45 s, in 20% EtOH): 2.5 | log reduction at 0.15 % strength (E. coli ATCC 10536; Escherichia coli, ATCC10536, 45 s, dose 0.150 % w/v, 45 s, in 20% EtOH): 7.4 | log reduction at 0.1 % strength (S. aureus ATCC 6538; Dose 0.1 % w/v, BCT 60 s): 0.8 | log reduction at 0.125 % strength (S. aureus ATCC 6538; Dose 0.125 % w/v, BCT 60 s): 1.6 | log reduction at 0.15 % strength (S. aureus ATCC 6538; Dose 0.15 % w/v, BCT 60 s, read-out: Log reduction): 2.3 | log reduction at 0.175 % strength (S. aureus ATCC 6538; Dose 0.175 % w/v, BCT 60 s, read-out: Log reduction): 5.5 | log reduction at 0.1 % strength (S. aureus ATCC 6538; dose 0.100 % w/v, 60 s): 0.7 | log reduction at 0.125 % strength (S. aureus ATCC 6538; dose 0.125 % w/v, 60 s): 1.5 | log reduction at 0.13 % strength (S. aureus ATCC 6538; dose 0.13 % w/v, 60 s): 1.6 | log reduction at 0.15 % strength (S. aureus ATCC 6538; [3]): 2.2 | log reduction at 0.175 % strength (S. aureus ATCC 6538; dose 0.175 % w/v, 60 s, read-out: Log reduction): 4.6 | log reduction at 0.2 % strength (S. aureus ATCC 6538; dose 0.200 % w/v, 60 s, read-out: Log reduction): 6.9 | log reduction at 0.12 % strength ([1]; Dose 0.12 % w/v): 2.4 | log reduction at 0.14 % strength ([1]; Dose 0.14 % w/v): 3.8 | log reduction at 0.15 % strength ([1]; Dose 0.15 % w/v): 7.5 | log reduction at 0.075 % strength ([2]; Dose 0.075 % w/v): 1 | log reduction at 0.1 % strength ([2]; Dose 0.1 % w/v): 2.4 | log reduction at 0.1 % strength ([2]; Dose 0.10 % w/v): 2 | log reduction at 0.125 % strength ([2]; Dose 0.125 % w/v): 4.4 | log reduction at 0.15 % strength ([2]; Dose 0.15 % w/v): 7.8
